These results are taken from US7642255B2, “Compounds and compositions as protein kinase inhibitors” (IRM LLC, priority 2004, dated 2010).

What all share (type): cell-based
For assay [1], the target named is T1, M351T Bcr-abl (Homo sapiens, UniProt P00519, M351T).
T1 construct: BCR (N-terminal fusion partner); expressed in transfected cells; host or cells: Ba/F3 cells; the other entry of the earlier key: BCR (P11274, Breakpoint cluster region protein)
The assay is described as follows: Antiproliferative effect on Ba/F3 cells expressing mutant BCR-Abl M351T. As to the method: (§1) 32D-p210 cells are plated into 96 well TC plates at a density of 15,000 cells per well. 50 μL of two fold serial dilutions of the test compound (Cmax is 40 μM) are added to each well (STI571 is included as a positive control). After incubating the cells for 48 hours at 37° C., 5% CO2, 15 μL of MTT (Promega) is added to each well and the cells are incubated for an additional 5 hours. The optical density at 570 nm is quantified spectrophotometrically and IC50 values, the concentration of compound required for 50% inhibition, determined from a dose response curve.
(§2) Compounds of the invention are tested for their antiproliferative effect on Ba/F3 cells expressing either wild type or the mutant forms of BCR-Abl (G250E, E255V, T3151, F317L, M351T) that confers resistance or diminished sensitivity to STI571. The antiproliferative effect of these compounds on the mutant-BCR-Abl expressing cells and on the non transformed cells were tested at 10, 3.3, 1.1 and 0.37 μM as described above (in media lacking IL3). The IC50 values of the compounds lacking toxicity on the untransformed cells were determined from the dose response curves obtained as describe above.

Assay [2] concerns the target T2, F317L Bcr-abl (Homo sapiens, UniProt P00519, F317L).
T2 construct: BCR (N-terminal fusion partner); expressed in transfected cells; host or cells: Ba/F3 cells; the other entry of the earlier key: BCR (P11274, Breakpoint cluster region protein)
The assay is described as follows: Antiproliferative effect on Ba/F3 cells expressing mutant BCR-Abl F317L. The protocol:
as §1, §2

In assay [3] the target is T3, G250E Bcr-abl (Homo sapiens, UniProt P00519, G250E).
T3 construct: BCR (N-terminal fusion partner); expressed in transfected cells; host or cells: Ba/F3 cells; the other entry of the earlier key: BCR (P11274, Breakpoint cluster region protein)
Put plainly: Antiproliferative effect on Ba/F3 cells expressing mutant BCR-Abl G250E. As to the method: as §1, §2

Assay [4] has as its target T4, E255V Bcr-abl (Homo sapiens, UniProt P00519, E255V).
T4 construct: BCR (N-terminal fusion partner); expressed in transfected cells; host or cells: Ba/F3 cells; the other entry of the earlier key: BCR (P11274, Breakpoint cluster region protein)
The assay is described as follows: Antiproliferative effect on Ba/F3 cells expressing mutant BCR-Abl E255V. As to the method: as §1, §2

The target of assay [5] is T5, wild type Bcr-abl (Homo sapiens, UniProt P00519).
T5 construct: BCR (N-terminal fusion partner); expressed in transfected cells; host or cells: Ba/F3 cells; the other entry of the earlier key: BCR (P11274, Breakpoint cluster region protein)
The assay is described as follows: Antiproliferative effect on Ba/F3 cells expressing wild type BCR-Abl. The protocol: as §1, §2

For assay [6], the target named is T6, T3151 Bcr-abl (Homo sapiens, UniProt P00519, T315I).
T6 construct: BCR (N-terminal fusion partner); expressed in transfected cells; host or cells: Ba/F3 cells
Put plainly: Antiproliferative effect on Ba/F3 cells expressing mutant BCR-Abl T3151. The protocol:
as §1, §2

For `Cc1ccc(NC(=O)c2cccc(C(F)(F)F)c2)cc1N1Cc2cnc(Nc3cccc(N)c3)nc2N(C)C1=O` [Example 2, N-{3-[7-(3-Amino-phenylamino)-1-methyl-2-oxo-1,4-dihydro-2H-pyrimido[4,5-d]pyrimidin-3-yl]-4-methyl-phenyl}-3-trifluoromethyl-benzamide], the IC50 (commonly the concentration that inhibits the measured activity by half) turned out to be 5 nM in assay [1]; 5 nM in assay [2]; 2 nM in assay [3]; 5 nM in assay [4]; 5 nM in assay [5]; 3 nM in assay [6].
